Results as given in US20260034166A1, “HEPARIN COMPOSITIONS FOR TREATMENT OF LUNG DAMAGE AND METHODS OF USE THEREOF” (Atossa Therapeutics, Inc., priority 2022, published 2026).

How the values were obtained:
ciliary motility = settings: cited from earlier work
[1] = aqueous solution at physiologic pH; cited from earlier work
[2] = Treatment of radiation-induced lung damage using nebulized enoxaparin and N-acetylcysteine; assay type: in vivo, human
Experimental: This example describes treatment of radiation-induced lung damage using nebulized enoxaparin and N-acetylcysteine. A patient with unresectable lung cancer, such as locally advanced or metastatic stage III/oligometastatic IV non-small cell lung carcinoma, who has received radiation therapy is administered nebulized enoxaparin via inhalation. The enoxaparin is purified to remove elemental impurities, as described in EXAMPLE 1, and formulated in water at a concentration of 100 mg/mL for a nebulized composition as described in EXAMPLE 2. A dose of either 0.5 mg enoxaparin per kg patient weight (mg/kg), 1 mg/kg, or 2 mg/kg of the aqueous enoxaparin formulation is nebulized and administered to the subject via inhalation every 12 hours for 14 days, followed by 14 days of no enoxaparin treatment. N-acetylcysteine is administered by inhalation via nebulization at 600 mg per dose 30 minutes after each dose of enoxaparin. The 28-day treatment cycle begins 4-6 weeks after completion of radiation therapy, and the treatment cycle is repeated for up to 6 cycles in the absence of disease progression or unacceptable toxicity. The patient continues to receive best supportive care for the lung cancer (e.g., chemotherapy therapy) while undergoing enoxaparin treatment.
(§1) Additionally, the enoxaparin therapy may reduce the recurrence of the lung cancer by slowing cancer progression through inhibition of mutagenic proliferation, adhesion, angiogenesis, migration, and invasion of cancer cells.

[3] = Treatment of chemotherapy-induced lung damage using nebulized heparin and N-acetylcysteine; assay type: in vivo, human
Experimental: This example describes treatment of chemotherapy-induced lung damage using nebulized heparin and N-acetylcysteine. A patient with unresectable lung cancer, such as locally advanced or metastatic stage III/oligometastatic IV non-small cell lung carcinoma, who is undergoing chemotherapy therapy with bleomycin, carmustine, lomustine, busulfan, daunorubicin, doxorubicin, or idarubicin is administered nebulized enoxaparin via inhalation. The enoxaparin is purified to remove elemental impurities, as described in EXAMPLE 1, and formulated in water at a concentration of 100 mg/mL for a nebulized composition as described in EXAMPLE 2. A dose of either 0.5 mg enoxaparin per kg patient weight (mg/kg), 1 mg/kg, or 2 mg/kg of the aqueous enoxaparin formulation is nebulized and administered to the subject via inhalation every 12 hours for 14 days, followed by 14 days of no enoxaparin treatment. N-acetylcysteine is administered by inhalation via nebulization at 600 mg per dose 30 minutes after each dose of enoxaparin. The 28-day treatment cycle is repeated for up to 6 cycles in the absence of disease progression or unacceptable toxicity. The patient continues to receive best supportive care for the lung cancer (e.g., chemotherapy therapy) while undergoing enoxaparin treatment.
as §1

[4] = same regimen, after radiation therapy
[5] = same regimen, during chemotherapy

## 2-alkyl-4-hydroxyquinolines [pyo compound]
Ciliary motility; ciliostatic factors from Pseudomonas aeruginosa
  concentration producing ciliostasis / inhibiting ciliary motility: 50 µg/mL

## CCN(CC)/[N+]([O-])=N/O.CCNCC [diethylamine/NO]
[1]
  time scale of NO release: < 3 min

## NCCN(CCN)/[N+]([O-])=N/O [diethylenetriamine/NO]
[1]
  time scale of NO release: approximately 20 hours

## enoxaparin
[2]; patient with unresectable lung cancer after radiation therapy, 0.5, 1 or 2 mg/kg inhaled every 12 hours for 14 days, N-acetylcysteine 600 mg after each dose
  development of radiation-induced pneumonitis: treats, prevents, or slows the development
[2]; [4]
  airway inflammation: decreases airway inflammation
  coagulation activation and pulmonary venous thromboembolism: prevents coagulation activation and pulmonary venous thromboembolism
  release of inflammatory cytokines, such as IL-6: inhibits release
[3]; patient with unresectable lung cancer undergoing chemotherapy, 0.5, 1 or 2 mg/kg inhaled every 12 hours for 14 days, N-acetylcysteine 600 mg after each dose
  development of chemotherapy-induced pneumonitis: treats, prevents, or slows the development
[3]; [5]
  airway inflammation: decreases airway inflammation
  coagulation activation and pulmonary venous thromboembolism: prevents coagulation activation and pulmonary venous thromboembolism
  release of inflammatory cytokines, such as IL-6: inhibits release

## rhamnolipid
Ciliary motility; limited exposure of tracheal explants
  effect on cilia: resulted in ciliostasis
